From patent US20080234262A1 (Wyeth, priority 2007, published 2008)
Values belong to the compound of their own block, whether it stands above or below them.

Columns and labels:
PI3K = PI3K (Homo sapiens, UniProt P42336); test: Fluorescence polarization assay for PI3K; format: biochemical; conditions: PI3Kα; read-out: PI3Kα IC50;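 note: PI3K kinase reaction on PIP2 with ATP, 30-60 min, product sensed by GST-GRP with red probe in fluorescence polarization (mP), controls without enzyme and at zero time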
Sequence of PI3K (P42336 whole entry): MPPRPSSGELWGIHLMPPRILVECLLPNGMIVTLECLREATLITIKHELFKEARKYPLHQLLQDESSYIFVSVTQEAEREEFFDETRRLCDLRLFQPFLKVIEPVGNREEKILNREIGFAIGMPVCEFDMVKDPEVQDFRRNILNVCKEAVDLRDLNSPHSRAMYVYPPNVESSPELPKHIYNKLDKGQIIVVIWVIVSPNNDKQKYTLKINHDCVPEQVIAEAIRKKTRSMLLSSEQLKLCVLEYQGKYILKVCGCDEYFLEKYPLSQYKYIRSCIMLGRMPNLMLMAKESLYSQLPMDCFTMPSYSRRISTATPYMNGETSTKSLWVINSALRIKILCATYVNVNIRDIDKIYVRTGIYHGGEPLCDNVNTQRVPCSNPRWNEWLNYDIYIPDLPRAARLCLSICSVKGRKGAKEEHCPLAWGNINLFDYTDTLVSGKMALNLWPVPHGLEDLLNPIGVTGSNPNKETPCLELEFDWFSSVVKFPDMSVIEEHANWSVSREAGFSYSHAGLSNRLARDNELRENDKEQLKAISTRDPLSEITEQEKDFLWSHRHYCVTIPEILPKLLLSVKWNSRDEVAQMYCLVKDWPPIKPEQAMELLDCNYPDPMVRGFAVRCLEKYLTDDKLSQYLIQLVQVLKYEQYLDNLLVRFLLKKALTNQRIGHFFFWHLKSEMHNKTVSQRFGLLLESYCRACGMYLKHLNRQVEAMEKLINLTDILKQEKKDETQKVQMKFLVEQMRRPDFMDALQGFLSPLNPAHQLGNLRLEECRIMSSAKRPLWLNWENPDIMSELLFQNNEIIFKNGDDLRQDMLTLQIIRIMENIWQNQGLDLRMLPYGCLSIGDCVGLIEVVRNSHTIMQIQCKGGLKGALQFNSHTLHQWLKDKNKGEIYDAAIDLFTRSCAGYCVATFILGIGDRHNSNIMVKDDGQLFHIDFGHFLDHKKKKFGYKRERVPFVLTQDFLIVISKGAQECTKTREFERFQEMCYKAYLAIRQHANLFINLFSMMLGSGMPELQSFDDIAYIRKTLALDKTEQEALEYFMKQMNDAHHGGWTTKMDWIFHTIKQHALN
Sequence of PI3K (P27986 whole entry partner): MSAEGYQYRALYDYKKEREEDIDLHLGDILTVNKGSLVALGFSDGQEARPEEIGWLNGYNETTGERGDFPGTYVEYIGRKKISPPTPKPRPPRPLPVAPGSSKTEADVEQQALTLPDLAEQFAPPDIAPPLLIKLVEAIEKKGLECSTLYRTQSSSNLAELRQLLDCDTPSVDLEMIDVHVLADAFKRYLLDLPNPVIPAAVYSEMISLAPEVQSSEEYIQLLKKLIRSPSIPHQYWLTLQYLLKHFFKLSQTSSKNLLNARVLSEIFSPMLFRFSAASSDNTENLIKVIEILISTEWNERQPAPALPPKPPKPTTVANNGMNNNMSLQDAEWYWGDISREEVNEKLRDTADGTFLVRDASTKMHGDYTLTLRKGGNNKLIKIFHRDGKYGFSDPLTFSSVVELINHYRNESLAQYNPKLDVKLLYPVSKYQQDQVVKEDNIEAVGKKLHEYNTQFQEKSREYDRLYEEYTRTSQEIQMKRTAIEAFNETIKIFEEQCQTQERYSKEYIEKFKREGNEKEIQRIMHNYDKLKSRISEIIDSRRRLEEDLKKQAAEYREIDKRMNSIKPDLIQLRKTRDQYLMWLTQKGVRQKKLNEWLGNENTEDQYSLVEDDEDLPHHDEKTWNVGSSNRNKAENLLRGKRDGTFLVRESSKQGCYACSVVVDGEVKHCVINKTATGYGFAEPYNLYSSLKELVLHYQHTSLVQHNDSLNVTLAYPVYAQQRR

prostate line LNCap = test: In vitro cell culture growth assay (MTS), LNCap; format: cell-based, human; conditions: Homo sapiens, LNCaP, 72 h, LNCap cells, three days after drug treatment
breast line MDA468 = test: In vitro cell culture growth assay (MTS), MDA468; format: cell-based, human; conditions: Homo sapiens, 72 h, MDA468 cells, three days after drug treatment
How it was run: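 Cells were plated and, one day later, exposed to inhibitors for three days; viable cell density was then measured by metabolic conversion of MTS dye, read as absorbance at 490 nm. Growth is expressed as percent of vehicle-treated control cells on the same plate.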

Compound: CN(C)CC(=O)N1CCC(n2ncc3c(N4CCOCC4)nc(-c4ccc5[nH]ccc5c4)nc32)CC1 [Compound 94]
IC50 (PI3K): 1.46 µM
IC50 (prostate line LNCap): 1.9 µM
IC50 (breast line MDA468): 4.2 µM

Compound: CN(C)C(=O)N1CCC(n2ncc3c(N4CCOCC4)nc(-c4ccc5[nH]ccc5c4)nc32)CC1 [Compound 95]
IC50 (PI3K): 2.46 µM
IC50 (prostate line LNCap): 0.7 µM
IC50 (breast line MDA468): 2.1 µM

Compound: C1=C(c2nc(N3CCOCC3)c3cnn(-c4ccccc4)c3n2)CCOC1 [Compound 98]
IC50 (PI3K): 0.754 µM
IC50 (prostate line LNCap): 60 µM
IC50 (breast line MDA468): 33 µM

Compound: c1ccc(-n2ncc3c(N4CCOCC4)nc(-c4ccc5sccc5c4)nc32)cc1 [Compound 105]
IC50 (PI3K): 3.08 µM
IC50 (prostate line LNCap): 60 µM
IC50 (breast line MDA468): 60 µM

Compound: c1ccc(-n2ncc3c(N4CCOCC4)nc(-c4cc5ccccc5[nH]4)nc32)cc1 [Compound 111, 6-(1H-indol-2-yl)-4-morpholin-4-yl-1-phenyl-1H-pyrazolo[3,4-d]pyrimidine]
IC50 (PI3K): 1.01 µM
IC50 (prostate line LNCap): 12 µM
IC50 (breast line MDA468): 23 µM

Compound: c1ccc(-n2ncc3c(N4CCOCC4)nc(-c4cc5ccccc5o4)nc32)cc1 [Compound 112]
IC50 (PI3K): 1.91 µM
IC50 (prostate line LNCap): 15 µM
IC50 (breast line MDA468): 60 µM

Compound: c1ccc(-n2ncc3c(N4CCOCC4)nc(-c4cc5ccccc5s4)nc32)cc1 [Compound 113]
IC50 (PI3K): 2.17 µM
IC50 (prostate line LNCap): 22 µM
IC50 (breast line MDA468): 23 µM

Compound: O=[N+]([O-])c1ccc(-c2nc(N3CCOCC3)c3cnn(-c4ccccc4)c3n2)cc1 [Compound 119]
IC50 (PI3K): 1.16 µM
IC50 (prostate line LNCap): 60 µM
IC50 (breast line MDA468): 60 µM

Compound: CN1CCN(C(=O)N2CCC(n3ncc4c(N5CCOCC5)nc(-c5ccc6[nH]ccc6c5)nc43)CC2)CC1 [Compound 120]
IC50 (PI3K): 0.737 µM
IC50 (prostate line LNCap): 0.7 µM
IC50 (breast line MDA468): 2 µM

Compound: O=C(N1CCOCC1)N1CCC(n2ncc3c(N4CCOCC4)nc(-c4ccc5[nH]ccc5c4)nc32)CC1 [Compound 121]
IC50 (PI3K): 2.13 µM
IC50 (prostate line LNCap): 0.6 µM
IC50 (breast line MDA468): 2 µM

Compound: O=C(N1CCCC1)N1CCC(n2ncc3c(N4CCOCC4)nc(-c4ccc5[nH]ccc5c4)nc32)CC1 [Compound 123]
IC50 (PI3K): 1.3 µM
IC50 (prostate line LNCap): 0.45 µM
IC50 (breast line MDA468): 1.8 µM

Compound: CN1CCC(n2ncc3c(N4CCOCC4)nc(-c4ccc5[nH]ccc5c4)nc32)CC1 [Compound 124]
IC50 (PI3K): 0.843 µM
IC50 (prostate line LNCap): 0.83 µM
IC50 (breast line MDA468): 1.7 µM

Compound: c1cc2cc(-c3nc(N4CCOCC4)c4cnn(CCN5CCCCC5)c4n3)ccc2[nH]1 [Compound 125]
IC50 (PI3K): 9.75 µM
IC50 (prostate line LNCap): 4.4 µM
IC50 (breast line MDA468): 7.3 µM

Compound: CC(=O)Nc1ccc(-c2nc(N3CCOCC3)c3cnn(CCN4CCCCC4)c3n2)cc1 [Compound 127]
IC50 (PI3K): 6.52 µM
IC50 (prostate line LNCap): 5 µM
IC50 (breast line MDA468): 18 µM

Compound: c1ccc(-n2ncc3c(N4CCOCC4)nc(-c4ccc(CN5CCOCC5)cc4)nc32)cc1 [Compound 130]
IC50 (PI3K): 0.822 µM
IC50 (prostate line LNCap): 60 µM
IC50 (breast line MDA468): 60 µM

Compound: c1ccc(-n2ncc3c(N4CCOCC4)nc(-c4ccc(N5CCOCC5)nc4)nc32)cc1 [Compound 131]
IC50 (PI3K): 1.1 µM
IC50 (prostate line LNCap): 60 µM
IC50 (breast line MDA468): 60 µM

Compound: c1cc2cc(-c3nc(N4CCOCC4)c4cnn(C5CCC6(CC5)OCCO6)c4n3)ccc2[nH]1 [Compound 142]
IC50 (PI3K): 1.49 µM
IC50 (prostate line LNCap): 0.32 µM
IC50 (breast line MDA468): 2.2 µM

Compounds with a lower IC50 (PI3K), results first:

IC50 (PI3K): 0.337 µM
IC50 (prostate line LNCap): 1.1 µM
Compound: O=C(CCl)N1CCC(n2ncc3c(N4CCOCC4)nc(-c4ccc5[nH]ccc5c4)nc32)CC1 [Compound 93]
IC50 (breast line MDA468): 1.2 µM

IC50 (PI3K): 0.449 µM
IC50 (prostate line LNCap): 1.3 µM
Compound: CNCC(=O)N1CCC(n2ncc3c(N4CCOCC4)nc(-c4ccc5[nH]ccc5c4)nc32)CC1 [Compound 96]
IC50 (breast line MDA468): 2.8 µM

IC50 (PI3K): 0.018 µM
IC50 (prostate line LNCap): 0.31 µM
Compound: CCn1ncc2c(N3CCOCC3)nc(-c3cccc(O)c3)nc21 [Compound 97]
IC50 (breast line MDA468): 1.3 µM

IC50 (PI3K): 0.332 µM
IC50 (prostate line LNCap): 3.5 µM
Compound: CS(=O)(=O)Nc1ccc(-c2nc(N3CCOCC3)c3cnn(-c4ccccc4)c3n2)cc1 [Compound 99]
IC50 (breast line MDA468): 5 µM

IC50 (PI3K): 0.359 µM
IC50 (prostate line LNCap): 60 µM
Compound: NC(=O)c1ccc(-c2nc(N3CCOCC3)c3cnn(-c4ccccc4)c3n2)cc1 [Compound 100]
IC50 (breast line MDA468): 60 µM

IC50 (PI3K): 0.32 µM
IC50 (prostate line LNCap): 3.2 µM
Compound: CN(C)CCCNC(=O)c1ccc(-c2nc(N3CCOCC3)c3cnn(-c4ccccc4)c3n2)cc1 [Compound 102]
IC50 (breast line MDA468): 7.5 µM

IC50 (PI3K): 0.58 µM
IC50 (prostate line LNCap): 3.9 µM
Compound: CN(C)CCNC(=O)c1ccc(-c2nc(N3CCOCC3)c3cnn(-c4ccccc4)c3n2)cc1 [Compound 103]
IC50 (breast line MDA468): 5 µM

IC50 (PI3K): 0.244 µM
IC50 (prostate line LNCap): 3.7 µM
Compound: CN(C)CCNC(=O)c1cccc(-c2nc(N3CCOCC3)c3cnn(-c4ccccc4)c3n2)c1 [Compound 104]
IC50 (breast line MDA468): 3.3 µM

IC50 (PI3K): 0.248 µM
IC50 (prostate line LNCap): 45 µM
Compound: O=C(O)CCC(=O)Nc1ccc(-c2nc(N3CCOCC3)c3cnn(-c4ccccc4)c3n2)cc1 [Compound 109]
IC50 (breast line MDA468): 30 µM

IC50 (PI3K): 0.393 µM
IC50 (prostate line LNCap): 15 µM
Compound: CN(C)c1ccc(-c2nc(N3CCOCC3)c3cnn(-c4ccccc4)c3n2)cc1 [Compound 114]
IC50 (breast line MDA468): 27 µM

IC50 (PI3K): 0.357 µM
IC50 (prostate line LNCap): 5.2 µM
Compound: CC(=O)Nc1cccc(-c2nc(N3CCOCC3)c3cnn(-c4ccccc4)c3n2)c1 [Compound 115]
IC50 (breast line MDA468): 9 µM

IC50 (PI3K): 0.111 µM
IC50 (prostate line LNCap): 20 µM
Compound: CS(=O)(=O)Nc1cccc(-c2nc(N3CCOCC3)c3cnn(-c4ccccc4)c3n2)c1 [Compound 116]
IC50 (breast line MDA468): 60 µM

IC50 (PI3K): 0.699 µM
IC50 (prostate line LNCap): 60 µM
Compound: c1ccc(-n2ncc3c(N4CCOCC4)nc(-c4ccc5occc5c4)nc32)cc1 [Compound 117]
IC50 (breast line MDA468): 60 µM

IC50 (PI3K): 0.122 µM
IC50 (prostate line LNCap): 7 µM
Compound: O=CNc1ccc(-c2nc(N3CCOCC3)c3cnn(-c4ccccc4)c3n2)cc1 [Compound 118]
IC50 (breast line MDA468): 20 µM

IC50 (PI3K): 0.132 µM
IC50 (prostate line LNCap): 0.7 µM
Compound: S=C(Nc1cccnc1)N1CCC(n2ncc3c(N4CCOCC4)nc(-c4ccc5[nH]ccc5c4)nc32)CC1 [Compound 122, 4-[6-(1H-indol-5-yl)-4-morpholin-4-yl-1H-pyrazolo[3,4-d]pyrimidin-1-yl]-N-pyridin-3-ylpiperidine-1-carbothioamide]
IC50 (breast line MDA468): 1.3 µM

IC50 (PI3K): 0.06 µM
IC50 (prostate line LNCap): 3.3 µM
Compound: Oc1cccc(-c2nc(N3CCOCC3)c3cnn(CCN4CCCCC4)c3n2)c1 [Compound 126]
IC50 (breast line MDA468): 13 µM

IC50 (PI3K): 0.384 µM
IC50 (prostate line LNCap): 4.8 µM
Compound: CNc1ccc(-c2nc(N3CCOCC3)c3cnn(-c4ccccc4)c3n2)cc1 [Compound 128]
IC50 (breast line MDA468): 60 µM

IC50 (PI3K): 0.311 µM
IC50 (prostate line LNCap): 0.3 µM
Compound: O=C(Nc1cccnc1)N1CCC(n2ncc3c(N4CCOCC4)nc(-c4ccc5[nH]ccc5c4)nc32)CC1 [Compound 132]
IC50 (breast line MDA468): 1.2 µM

IC50 (PI3K): 0.1 µM
IC50 (prostate line LNCap): 2.8 µM
Compound: O=C(CCN1CCCCC1)Nc1ccc(-c2nc(N3CCOCC3)c3cnn(-c4ccccc4)c3n2)cc1 [Compound 137]
IC50 (breast line MDA468): 1.2 µM

IC50 (PI3K): 0.134 µM
IC50 (prostate line LNCap): 1.5 µM
Compound: O=C(CCO)Nc1ccc(-c2nc(N3CCOCC3)c3cnn(-c4ccccc4)c3n2)cc1 [Compound 139]
IC50 (breast line MDA468): 60 µM

IC50 (PI3K): 0.131 µM
IC50 (prostate line LNCap): 2.9 µM
Compound: O=C(Nc1ccc(-c2nc(N3CCOCC3)c3cnn(-c4ccccc4)c3n2)cc1)C1CCNCC1 [Compound 140]
IC50 (breast line MDA468): 1.3 µM
